One assay concerns C2C12 cells. As to the kind of experiment: ALP activity determination in C2C12 cells. Type of assay: cell-based, mouse. Particulars: 6 days.
The test system of the next assay is mouse osteoblasts. The assay is described as follows: ALP activity determination in mouse osteoblasts. Type of assay: cell-based. Particulars: 300 μM; differentiation medium; Day 7. On the procedure: Seven days after differentiation, the culture supernatant was removed from each plate and the cells were fixed with an acetone/ethanol solution. The ALP activity was determined using p-nitrophenyl phosphate as a substrate. Specifically, a carbonate buffer (5 mM MgCl2, 50 mM NaHCO3) containing p-nitrophenyl phosphate (Nacalai) (1 mg/mL) was added to each well (100 μL/well), followed by incubation at 37° C. Then, the OD value at 405 nm was determined with the use of a microplate reader (BMG Labtech) for each well.
For experiments, a goat polyclonal mRANKL antibody (R&D, Saint Cruz), monoclonal mRANKL antibodies ((A): clone 88227 (R&D); (B): clone 12A668) (ALEXIS), and synthetic peptide D were used. As negative controls, goat IgG (ZYMED) and a control peptide were used. Synthetic peptide D and the control peptide used were the same as those used in Example 1. […] ALP activity determination was carried out as in Example 1.
Newborn mouse calvarias were immersed in an enzyme solution (0.1% collagenase (Wako)+0.2% Dispase (GODO SHUSEI CO., LTD.)), followed by shaking in a thermostatic bath at 37° C. for 5 minutes. The initial floating cell fraction was removed therefrom and a new enzyme solution (10 mL) was added thereto, followed by another instance of shaking in a thermostatic bath at 37° C. for 10 minutes. The above operations were repeated 4 times. […]

For another assay, the system named is MC3T3-E1 cells. As to the kind of experiment: Alizarin red S staining (calcification) of MC3T3-E1 cells. Format: cell-based, mouse. Particulars: 300 μM; Day 21; differentiation medium and maintenance medium. On the procedure:
On Day 21 after differentiation, the cells were washed with PBS, followed by fixation with a 10% neutral buffer formalin solution.
The cells were washed with water after removal of the fixative solution. A 1% alizarin red S stain solution (Nacalai) (150 μL) was added thereto. The plate was left at room temperature for 3 minutes. Thereafter, the stain solution was discarded, followed by washing with water and drying. Then, microscopic observation was carried out.
Cells mixed with 10% FBS+αMEM (GIBCO) were seeded on a 96-well plate (8×10^3 cells/well) and a 48-well plate (2×10^4 cells/well). The culture supernatant of each plate was replaced with 10% FBS+αMEM containing 5 mM β glycerophosphoric acid (SIGMA)+10 μg/mL sodium ascorbate (SIGMA) 48 hours later. Then, the medium was replaced with new medium every 3 or 4 days. As a control, MC3T3-E1 was cultured with the use of 10% FBS+αMEM as a maintenance medium. Upon medium replacement, a peptide was added to each plate at a concentration of 300 μM, ALP activity determination and alizarin red S staining were carried out by the method described in Example 1 on Days 7 and 21.

For assay [1], the system named is Human mesenchymal stem cells. As to the kind of experiment: ALP staining of human mesenchymal stem cells. Type of assay: cell-based. Particulars: Day 7 after differentiation; compared with the control group. The procedure:
Peptide D was added at a concentration of 300 μM during differentiation. On Day 7, cells were fixed with a 10% neutral buffer formalin solution, followed by re-fixation with an acetone/ethanol solution.
A stain solution (500 μL) prepared with the composition described below was added to the cells, followed by incubation at 37° C. for 10 minutes, washing with water, and drying.
Naphthol AS-MX phosphate (SIGMA): 5 mg
Fast blue hemi-salt (SIGMA): 30 mg

Bridges are numbered along the chain shown (N, C = ends). Where no end group is shown, it is not given here.

“peptide D: cyclic peptide of SEQ ID NO: 7, 9 amino acids, two cysteine residues bound via a disulfide bond; binds to RANKL (YCWSQYLCY; disulfide 2-8 (inferred))”: the ALP activity entry in the assay on C2C12 cells (50 μM peptide D alone) was “actions of ALP activity enhancement were not observed”. For the same substance, the “increase in the ALP activity relative to BMP-2 alone” value in the assay on C2C12 cells (50 μM peptide D combined with 100 ng/mL BMP-2) is “at least 5 times”. Moreover, the ALP activation result with mouse osteoblasts is reported as “caused an increase in the degree of ALP activation”. For the same substance, the “alizarin red staining (calcification)” value with MC3T3-E1 cells is recorded as “strong degree of alizarin red staining”. Also, the ALP staining result in assay [1] is “observed in a concentration-dependent manner”.

Values taken from patent US20100260680A1, “NOVEL BONE MASS INCREASING AGENT” (ORIENTAL YEAST CO., LTD., priority 2007, published 2010).
